Laboratory results: BindingDB's records for doi:10.1016/s0960-894x(00)00166-9 (Universidad Complutense, 2000)

Molecular target: 5-hydroxytryptamine receptor 7 (Rattus norvegicus, UniProt P32305)
Assay: Binding affinity towards 5-hydroxytryptamine 7 receptor

Chain of 5-hydroxytryptamine receptor 7 (P32305 whole entry): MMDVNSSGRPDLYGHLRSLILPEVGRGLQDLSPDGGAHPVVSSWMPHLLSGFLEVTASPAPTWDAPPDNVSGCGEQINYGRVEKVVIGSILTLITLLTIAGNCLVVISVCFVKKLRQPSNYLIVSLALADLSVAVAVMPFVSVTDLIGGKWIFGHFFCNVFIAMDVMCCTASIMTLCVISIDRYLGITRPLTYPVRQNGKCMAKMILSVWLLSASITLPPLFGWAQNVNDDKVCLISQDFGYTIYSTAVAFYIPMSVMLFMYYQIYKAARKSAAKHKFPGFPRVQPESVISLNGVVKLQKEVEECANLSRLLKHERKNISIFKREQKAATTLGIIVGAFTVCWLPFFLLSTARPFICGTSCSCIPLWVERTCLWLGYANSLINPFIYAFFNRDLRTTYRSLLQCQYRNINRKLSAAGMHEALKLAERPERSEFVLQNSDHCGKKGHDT

- Ki: 0.063 µM
Structure (SMILES): CC(C)(C)[C@]1(O)CCN2C[C@H]3c4ccccc4CCc4cccc(c43)[C@@H]2C1
